{"source": "patent US7166706B2", "about": "(priority 2001, dated 2007)", "key": {"[1]": {"tested_on": "Magnaporthe grisea strain P1.2", "assay_type": "cell-based", "conditions": "for mean percentage of growth of the M. grisea fungus: 5th day, control = 100%"}, "M. grisea spores": {"tested_on": "M. grisea spores", "assay_type": "cell-based, Magnaporthe grisea"}, "Botrytis cinerea": {"tested_on": "Botrytis cinerea", "assay_type": "cell-based"}, "Pythium ultimum": {"tested_on": "Pythium ultimum", "assay_type": "cell-based"}, "Ustilago nuda": {"tested_on": "Ustilago nuda", "assay_type": "cell-based"}, "[2]": {"tested_on": "Mycosphaerella graminicola", "assay_type": "cell-based"}, "yeast reductoisomerase [3]": {"target": "T1, yeast reductoisomerase (Saccharomyces cerevisiae, UniProt P06168)", "T1 sequence (P06168 48-395)": "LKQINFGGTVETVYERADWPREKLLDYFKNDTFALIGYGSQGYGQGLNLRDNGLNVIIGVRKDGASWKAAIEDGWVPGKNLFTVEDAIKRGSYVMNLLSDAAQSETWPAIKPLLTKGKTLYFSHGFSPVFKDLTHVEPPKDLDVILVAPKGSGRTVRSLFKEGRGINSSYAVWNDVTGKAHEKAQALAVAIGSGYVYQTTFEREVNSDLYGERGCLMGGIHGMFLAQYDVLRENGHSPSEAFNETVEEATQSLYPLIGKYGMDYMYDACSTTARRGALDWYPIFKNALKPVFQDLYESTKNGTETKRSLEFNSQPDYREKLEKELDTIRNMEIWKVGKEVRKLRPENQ", "assay": "Stoichiometry of binding of the inhibitors to the yeast reductoisomerase", "assay_type": "biochemical", "conditions": "for stoichiometry of binding of the inhibitor to the yeast reductoisomerase: 0.1 nmol inhibitor completely inhibits 0.1 nmol enzyme; for type of inhibition (reversibility): yeast reductoisomerase", "experimental": "FIGS. 6A and 6B: Stoichiometry for binding of the inhibitors dimethylphosphinoyl-2-hydroxyacetate and N-hydroxy-N-isopropyloxamate to the yeast reductoisomerase. The inhibitors Hoe 704 [A] and IpOHA [B] (0.1 nmol) are incubated with varying amounts of enzyme (0 to 0.4 nmol) for 20 minutes at 25° C. with 25 nmol of NADPH and 0.25 μmol of Mg^2+ in a volume of 10 μl. The enzyme activity measurements are carried out at 25° C. in 1 ml of the following reaction medium: 10 mM MgCl2, 250 μM NADPH, 0.48 mM AHB, and in 50 mM sodium Hepes buffer, pH 7.5.\nThe kinetic parameters for the yeast reductoisomerase were determined by following the evolution of the enzyme reaction in the spectrophotometer under saturating conditions with respect to magnesium, to NADPH and to AHB or AL substrate. All the enzyme activity measurements were carried out in a quartz cuvette with an optical path of 1 cm, containing sodium Hepes buffer (50 mM, pH 7.5), 10 mM MgCl2, 250 μM NADPH, in a final volume of 1 ml, at 25° C. The enzyme reaction was initiated by adding 0.48 mM of AHB or of AL. The evolution of this reaction was followed by virtue of the decrease in absorption of NADPH at 340 nm.\nThe study of the stoichiometry of binding of the inhibitors N-hydroxy-N-isopropyl-oxamate and dimethylphosphinoyl-2-hydroxyacetate was carried out by incubating varying amounts of enzyme (from 0.1 to 0.4 nmol) with a constant amount of inhibitor for 20 minutes, with 25 nmol of NADPH and 0.25 μmol of MgCl2, in a final volume of 10 μl. The reactions are initiated by adding 0.48 mM AHB in 50 mM sodium Hepes buffer, pH 7.5, containing 10 mM MgCl2.\nIn the presence of 0.1 nmol of dimethylphosphinoyl-2-hydroxyacetate, an enzyme activity is detected only with amounts of enzyme greater than […]. Similarly, in the presence of 0.1 nmol of N-hydroxy-N-isopropyloxamate, an enzyme activity is detected only for amounts of enzyme greater than 0.1 nmol (FIG. 6). In addition, for these two inhibitors, when the enzyme is in excess relative to the inhibitor in the reaction medium, the enzyme activities increase in parallel with those of the control without inhibitor. […] In fact, in the case of irreversible inhibition, in the presence of a low amount of enzyme, all the enzyme complexes with the inhibitor. The enzyme activity is then zero, since there is no longer any free enzyme in the reaction medium. When the amount of enzyme present in the reaction medium is greater than the amount of inhibitor, the free enzyme in excess in the medium then behaves like the control without inhibitor (straight line parallel to the control)."}, "yeast reductoisomerase [4]": {"target": "T1, yeast reductoisomerase", "assay": "Kinetics of inhibition of the yeast reductoisomerase (NADPH absorbance at 340 nm)", "assay_type": "biochemical", "conditions": "for mechanism of inhibition with respect to the AHB substrate: 1/m3 linear in AHB concentration, enzyme 110 nM; for k0, inhibitor/enzyme association constant: yeast reductoisomerase 110 nM, 25° C., pH 7.5, AHB varied", "experimental": "FIGS. 7A and 7B: Kinetics of inhibition of the yeast reductoisomerase in the presence of the inhibitors dimethylphosphinoyl-2-hydroxyacetate [A] and N-hydroxy-N-isopropyloxamate [B]. The enzyme activity measurements are carried out at 25° C. in 1 ml of the following reaction medium: 10 mM MgCl2, 250 μM NADPH, 0.48 mM AHB in 50 mM sodium Hepes buffer, pH 7.5, and in the presence of enzyme 110 nM.\nThe reactions are initiated by simultaneously adding varying amounts of inhibitors dimethylphosphinoyl-2-hydroxyacetate [A] and N-hydroxy-N-isopropyloxamate [B] (from 2 μM to 30 μM) to the reaction medium. The curves are plotted according to the equation (1), which makes it possible to determine the values for Kobs, the apparent rate of formation of the enzyme-inhibitor complex.\nFIGS. 8A and 8B: Kinetics of inhibition of the yeast reductoisomerase in the presence of the inhibitors dimethylphosphinoyl-2-hydroxyacetate [A] and N-hydroxy-N-isopropyloxamate [B]. The enzyme activity measurements are carried out at 25° C. in 1 ml of the following reaction medium: 10 mM MgCl2, 250 μM NADPH, 0.48 mM AHB in 50 mM sodium Hepes buffer, pH 7.5, and in the presence of enzyme at 110 nM.\nThe reactions are initiated by simultaneously adding varying amounts of inhibitors [A] and [B] (from 2 μM to 50 μM) to the reaction medium.\nFIGS. 9A and 9B: Determination of the association constant k0 for the dimethylphosphinoyl-2-hydroxyacetate [A] and for the N-hydroxy-N-isopropyloxamate [B] on the yeast reductoisomerase using the representation 1/Kobs as a function of the concentration of substrate AHB. The enzyme activity measurements are carried out at 25° C. in 1 ml of the following reaction medium: 10 mM MgCl2, 250 μM NADPH, from 125 μM to 2.375 mM AHB, and in 50 mM sodium Hepes buffer, pH 7.5, and in the presence of enzyme at 110 nM. The reactions are initiated by simultaneously adding varying amounts of substrate AHB (from 125 μM to 2.375 mM) and the inhibitors [A] (10 μM) and [B] (15 μM) to the reaction medium.\nThe curves are plotted according to the equation (3), which makes it possible to determine the values for k0, the rate of association of the inhibitor with the enzyme.\nThe effect of the inhibitors N-hydroxy-N-isopropyloxamate and dimethylphosphinoyl-2-hydroxyacetate on the yeast reductoisomerase was followed over time by measuring the decrease in absorbence of NADPH at 340 nm, in a spectrophotometer. […]\nEquation (1): OD340=m1+(m2−m1).e^(−m3.t) where the parameters are as follows: • OD340 is the optical density measured on a spectrophotometer at 340 nm at time “t” • m1 the optical density when “t” tends toward infinity • m2 the initial optical density • m3 the product of the concentration of inhibitor multiplied by the apparent disappearance constant for NADPH. […]"}, "[5]": {"tested_on": "all the sensitive fungal species", "assay_type": "cell-based"}, "plant reductoisomerase": {"target": "plant reductoisomerase (Spinacia oleracea, UniProt Q01292)", "sequence (Q01292 73-595)": "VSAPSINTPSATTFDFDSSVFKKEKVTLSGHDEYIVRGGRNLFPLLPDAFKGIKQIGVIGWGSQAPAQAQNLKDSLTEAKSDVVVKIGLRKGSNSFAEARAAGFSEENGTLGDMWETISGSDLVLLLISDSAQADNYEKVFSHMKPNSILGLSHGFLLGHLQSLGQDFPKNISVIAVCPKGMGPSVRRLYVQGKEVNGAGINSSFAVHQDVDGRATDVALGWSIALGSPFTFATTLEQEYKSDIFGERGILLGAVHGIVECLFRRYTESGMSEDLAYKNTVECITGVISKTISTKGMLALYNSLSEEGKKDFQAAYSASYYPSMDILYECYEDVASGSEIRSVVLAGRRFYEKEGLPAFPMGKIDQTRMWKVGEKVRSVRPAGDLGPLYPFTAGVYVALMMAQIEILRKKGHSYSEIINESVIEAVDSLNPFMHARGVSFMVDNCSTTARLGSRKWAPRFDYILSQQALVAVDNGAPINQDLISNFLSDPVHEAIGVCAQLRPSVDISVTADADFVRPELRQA", "conditions": "cited from earlier work"}, "[6]": {"conditions": "Magnaporthe grisea, liquid minimum medium (Table 5; text gives concentrations in μM)"}}, "note": "Like-named read-outs stand apart in the source and are kept apart here."}
{"smiles": "CC(C)N(O)C(=O)C(=O)O", "note": "[N-hydroxy-N-isopropyloxamate]", "values": [{"measurement": "mean percentage of growth of the M. grisea fungus", "setting": "[1]; 0.03 μM inhibitor, MM + leucine, valine, isoleucine 0.3 mM (MM + ILV)", "result": 77.5, "unit": "%"}, {"measurement": "mean percentage of growth of the M. grisea fungus", "setting": "[1]; 0.03 μM inhibitor, minimum medium (MM)", "result": 92, "unit": "%"}, {"measurement": "mean percentage of growth of the M. grisea fungus", "setting": "[1]; 0.1 μM inhibitor, MM + ILV 0.3 mM", "result": 83.5, "unit": "%"}, {"measurement": "mean percentage of growth of the M. grisea fungus", "setting": "[1]; 0.1 μM inhibitor, minimum medium (MM)", "result": 89, "unit": "%"}, {"measurement": "mean percentage of growth of the M. grisea fungus", "setting": "[1]; 0.3 μM inhibitor, MM + ILV 0.3 mM", "result": 81, "unit": "%"}, {"measurement": "mean percentage of growth of the M. grisea fungus", "setting": "[1]; 0.3 μM inhibitor, minimum medium (MM)", "result": 72, "unit": "%"}, {"measurement": "mean percentage of growth of the M. grisea fungus", "setting": "[1]; 1 μM inhibitor, MM + ILV 0.3 mM", "result": 72.5, "unit": "%"}, {"measurement": "mean percentage of growth of the M. grisea fungus", "setting": "[1]; 1 μM inhibitor, minimum medium (MM)", "result": 56, "unit": "%"}, {"measurement": "mean percentage of growth of the M. grisea fungus", "setting": "[1]; 3 μM inhibitor, MM + ILV 0.3 mM", "result": 71.5, "unit": "%"}, {"measurement": "mean percentage of growth of the M. grisea fungus", "setting": "[1]; 3 μM inhibitor, minimum medium (MM)", "result": 13, "unit": "%"}, {"measurement": "toxicity on growth when minimum medium is supplemented with valine, leucine and isoleucine", "setting": "[1]; ILV at 0.3 mM, whatever the inhibitor concentration", "result": "lifted"}, {"measurement": "Level of sensitivity to IpOHA", "setting": "[1]; Magnaporthe grisea", "result": "Sensitive"}, {"measurement": "ID50: concentration which inhibits fungal growth by 50%", "setting": "[1]; [6]", "result": 1}, {"measurement": "ID80: concentration which inhibits fungal growth by 80%", "setting": "[1]; [6]", "result": 3}, {"measurement": "inhibition of fungal growth", "setting": "[1]; inhibitor 0.3 to 1 μM, MM medium, from the 3rd day", "result": "approximately 50%"}, {"measurement": "ID80 (concentration of inhibitor such that the inhibition in fungal growth is 80%)", "setting": "[1]; minimum medium, 5th day of growth", "result": 1000, "unit": "nM"}, {"measurement": "concentration from which inhibition of growth is observed", "setting": "[1]; minimum medium, from the 3rd day of growth", "result": "≥ 0.3", "unit": "µM"}, {"measurement": "spore germination", "setting": "M. grisea spores; 10 mM, in water or in minimum medium, at 24 and 72 hours", "result": "does not inhibit"}, {"measurement": "spore germination", "setting": "M. grisea spores; 1 and 3 μM, minimum medium, days 0 and 2", "result": "not blocked"}, {"measurement": "Level of sensitivity to IpOHA", "setting": "Botrytis cinerea", "result": "Resistant"}, {"measurement": "effect on growth at the highest concentration used", "setting": "Botrytis cinerea", "result": "not affected"}, {"measurement": "ID50: concentration which inhibits fungal growth by 50%", "setting": "Pythium ultimum", "result": 10}, {"measurement": "ID80: concentration which inhibits fungal growth by 80%", "setting": "Pythium ultimum", "result": 30}, {"measurement": "Level of sensitivity to IpOHA", "setting": "Pythium ultimum", "result": "Moderately sensitive"}, {"measurement": "concentration from which growth is inhibited", "setting": "Pythium ultimum", "result": "≥ 10", "unit": "µM"}, {"measurement": "ID50: concentration which inhibits fungal growth by 50%", "setting": "Ustilago nuda", "result": 3}, {"measurement": "ID80: concentration which inhibits fungal growth by 80%", "setting": "Ustilago nuda", "result": 30}, {"measurement": "IpOHA concentrations for which inhibition is lifted by isoleucine, leucine and valine", "setting": "Ustilago nuda", "result": "less than 30 μM"}, {"measurement": "Level of sensitivity to IpOHA", "setting": "Ustilago nuda", "result": "Moderately sensitive"}, {"measurement": "concentration from which growth is inhibited", "setting": "Ustilago nuda", "result": "≥ 10", "unit": "µM"}, {"measurement": "ID50: concentration which inhibits fungal growth by 50%", "setting": "[2]", "result": 1}, {"measurement": "ID80: concentration which inhibits fungal growth by 80%", "setting": "[2]", "result": 3}, {"measurement": "Level of sensitivity to IpOHA", "setting": "[2]", "result": "Sensitive"}, {"measurement": "concentration from which growth is inhibited", "setting": "[2]", "result": "≥ 0.3", "unit": "µM"}, {"measurement": "stoichiometry of binding of the inhibitor to the yeast reductoisomerase", "setting": "yeast reductoisomerase [3]", "result": "1 mol of inhibitor per mole of enzyme"}, {"measurement": "amount of enzyme above which an enzyme activity is detected", "setting": "yeast reductoisomerase [3]; 0.1 nmol inhibitor, 20 min preincubation with NADPH and Mg2+", "result": "greater than 0.1 nmol"}, {"measurement": "type of inhibition (reversibility)", "setting": "yeast reductoisomerase [3]", "result": "irreversible inhibitors"}, {"measurement": "mechanism of inhibition with respect to the AHB substrate", "setting": "yeast reductoisomerase [4]", "result": "competitive"}, {"measurement": "k0, inhibitor/enzyme association constant", "setting": "yeast reductoisomerase [4]", "result": "12 433 M^−1.s^−1"}, {"measurement": "toxicity when minimum medium is supplemented with isoleucine, leucine and valine", "setting": "[5]", "result": "lifted"}, {"measurement": "k0, inhibitor/enzyme association constant", "setting": "plant reductoisomerase", "result": 1900, "unit": "M⁻¹ s⁻¹"}]}
{"smiles": "CP(C)(=O)C(O)C(=O)O", "note": "(centres unmarked) [dimethylphosphinoyl-2-hydroxyacetate]", "values": [{"measurement": "decrease in growth compared to control without inhibitor", "setting": "[1]; inhibitor at 2 mM, MM medium, 6th and 7th day of growth", "result": 50, "unit": "%"}, {"measurement": "stoichiometry of binding of the inhibitor to the yeast reductoisomerase", "setting": "yeast reductoisomerase [3]", "result": "1 mol of inhibitor per mole of enzyme"}, {"measurement": "type of inhibition (reversibility)", "setting": "yeast reductoisomerase [3]", "result": "irreversible inhibitors"}, {"measurement": "mechanism of inhibition with respect to the AHB substrate", "setting": "yeast reductoisomerase [4]", "result": "competitive"}, {"measurement": "k0, inhibitor/enzyme association constant", "setting": "yeast reductoisomerase [4]", "result": 7721, "unit": "M⁻¹ s⁻¹"}, {"measurement": "k0, inhibitor/enzyme association constant", "setting": "plant reductoisomerase", "result": "22 000 M^−1.s^−1"}]}
